Source: patent US6355630B1, “Estra-1,3,5(10)-triene-7α-thioethers” (priority 1997, dated 2002)
Counter-ions that a name gives are not always drawn. Like-named read-outs stand apart in the source and are kept apart here.

What was measured:
[1] = test system: Ishikawa uterine cells; experiment: Ishikawa cell alkaline phosphatase test procedure; assay type: cell-based, human; conditions: for Alkaline phosphatase activity, percent of response related to 1 nM 17β-estradiol: 48 h
Description: Ishikawa Cell Alkaline Phosphatase Test Procedure
Cell Maintenance and Treatment
Ishikawa cells were maintained in DMEM/F12 (50%:50%) containing phenol red+10% fetal bovine serum and the medium was supplemented with 2 mM Glutamax, 1% Pen/Strap and 1 mM sodium pyruvate. Five days prior to the beginning of each evaluation (treatment of cells) the medium was changed to phenol red-free DMEM/F12+10% dextran coated charcoal stripped serum. On the day before treatment, cells were harvested using 0.5% trypsin/EDTA and plated at a density of 5×10^4 cells/well in 96-well tissue culture plates. […] Cells were treated for 48 h prior to assay. […] Sample population for at each dose was n=8.
Alkaline Phosphatase Test Procedure
At the end of 48 h the media was aspirated and cells were washed three times with phosphate buffered saline (PBS); 50 μL of lysis buffer (0.1 M Tris-HCl, pH 9.8, 0.2% Triton X-100) was added to each well. Plates were placed at −80° C. for a minimum of 15 minutes. Plates were thawed at 37° C. followed by the addition of 150 μL of 0.1 M Tris-HCl, pH 9.8, containing 4 mM para-nitrophenylphosphate (pNPP) to each well (final concentration, 3 mM pNPP).
Absorbance and slope calculations were made using the KineticCalc Application program (Bio-Tek Instruments, Inc., Winooski, Vt.). Results are expressed as the mean +/−S.D. of the rate of enzyme reaction (slope) averaged over the linear portion of the kinetic reaction curve (optical density readings every 5 minutes for 30 minutes absorbance reading).
The four compounds were used as reference standards:
A description of these methods is described by Holinka, C. F., Hata, H., Kuramoto, H. and Gurpide, E. (1986) Effects of steroid hormones and antisteroids on alkaline phosphatase activity in human endometrial cancer cells (Ishikawa Line). Cancer Research, 46:2771-2774, and by Littlefield, B. A., Gurpide, E., Markiewicz, L., McKinley, B. and Hochberg, R. B. (1990) A simple and sensitive microtiter plate estrogen bioassay based on stimulation alkaline phosphatase in Ishikawa cells; Estrogen action of D5 adrenal steroids. Endocrinology, 6:2757-2762.

[2] = test system: rat uterus; experiment: Rat uterotrophic/antiuterotrophic test procedure; assay type: in vivo; conditions: for Uterine wet weight: daily ip, 4-day immature rat
Description: Rat Uterotrophic/Antiuterotrophic Test Procedure
The estrogenic and antiestrogenic properties of the compounds were determined in a 4-day immature rat uterotrophic assay (as described previously by L. J. Black and R. L. Goode, Life Sciences, 26, 1453 (1980)). Immature Sprague-Dawley rats (female, 18 days old) were tested in groups of six. […] On day 4 the animals were sacrificed by CO2 asphyxiation and their uteri were removed and stripped of excess lipid, any fluid removed and the wet weight determined. A small section of one horn was submitted for histology and the remainder used to isolate total RNA in order to evaluate complement component 3 gene expression.
Representative compounds of this invention were evaluated in the rat uterotrophic/antiuterotrophic assay to determine their in vivo effects on the rat uterus.

[3] = biological target: T1, human estrogen receptor (Homo sapiens, UniProt P03372); experiment: In vitro estrogen receptor binding test procedure ([3H]-17β-estradiol competition)
T1 construct: expressed in transfected cells; host or cells: Chinese Hamster ovary (CHO) cells; ribosome-free cytosol
T1 sequence (P03372 1-595): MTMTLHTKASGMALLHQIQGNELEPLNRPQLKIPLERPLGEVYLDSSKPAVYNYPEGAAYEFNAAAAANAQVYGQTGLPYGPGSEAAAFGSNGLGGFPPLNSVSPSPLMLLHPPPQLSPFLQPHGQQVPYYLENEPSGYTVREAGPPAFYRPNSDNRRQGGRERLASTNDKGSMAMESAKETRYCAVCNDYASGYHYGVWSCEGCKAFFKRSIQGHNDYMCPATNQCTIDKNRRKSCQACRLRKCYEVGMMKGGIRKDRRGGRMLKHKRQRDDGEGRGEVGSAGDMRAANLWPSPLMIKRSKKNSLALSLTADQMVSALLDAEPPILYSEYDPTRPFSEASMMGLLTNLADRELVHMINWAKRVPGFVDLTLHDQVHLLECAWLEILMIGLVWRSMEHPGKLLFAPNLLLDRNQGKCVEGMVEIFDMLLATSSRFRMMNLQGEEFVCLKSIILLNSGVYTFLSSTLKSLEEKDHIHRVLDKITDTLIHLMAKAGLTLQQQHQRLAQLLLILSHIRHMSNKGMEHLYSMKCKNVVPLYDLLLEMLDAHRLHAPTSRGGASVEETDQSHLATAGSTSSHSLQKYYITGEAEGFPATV
Description: In vitro Estrogen Receptor Binding Test Procedure
Chinese Hamster ovary (CHO) cells overexpressing the estrogen receptor were grown in […] dishes in DMEM+10% dextran coated charcoal, stripped fetal bovine serum. The plates were washed twice with PBS and once with 10 mM Tris-HCl, pH 7.4, 1 mM EDTA. Cells were harvested by scraping the surface and then the cell suspension was placed on ice. Cells were disrupted with a hand-held motorized tissue grinder using two, 10-second bursts. The crude preparation was centrifuged at 12,000 g for 20 minutes followed by a 60 minute spin at 100,000 G to produce a ribosome free cytosol. The cytosol was then frozen and stored at −80° C. Protein concentration of the cytosol was estimated using the BCA assay with reference standard protein.
Binding Test Procedure Conditions
100 uG/100 uL of the receptor preparation was aliquoted per well. […] The plate was incubated at room temperature for 2.5 h. At the end of this incubation period 150 uL of ice-cold dextran coated charcoal (5% activated charcoal coated with 0.05% 69K dextran) was added to each well and the plate was immediately centrifuged at 99 g for 5 minutes at 4° C. 200 uL of the supernatant solution was then removed for scintillation counting. Samples were counted to 2% or 10 minutes, whichever occurs first. […] Also, wells containing radioactivity but no cytosol were processed with charcoal to estimate unremovable DPM of [^3H] […] 96-well plates were used because they have proven to bind the least amount of estradiol.
Counts per minute (CPM) of radioactivity were automatically converted to disintegrated per minute (DPM) by the Beckman LS 7500 Scintillation Counter using a set of quenched standards to generate a H# for each sample. To calculate the % of estradiol binding in the presence of 100 or 500 fold competitor the following formula was applied:
((DPM sample−DPM not removed by charcoal/(DPM estradiol−DPM not removed by charcoal))×100%=% of estradiol binding
For the generation of IC50 curves, % binding is plotted vs compound. […] Values are reported as IC50 values. […] For a description of these methods, see Hulme, E. C., ed. 1992. Receptor-Ligand Interactions: A Practical Approach. IRL Press, New York.(see especially chapter 8).
Compounds were tested for their ability to displace estradiol in a human ER-receptor preparation as described above.

[4] = 1 uM compound + 1 nM E2, antagonist mode

`CC12CCC3c4ccc(O)cc4CC(Sc4ccc(-c5ccc(C=CC(=O)O)cc5)cc4)C3C1CCC2O` (stereo not drawn) [Example 13, (7α,17β) 7-{4-[4′-(2-Carboxy)-ethenyl]biphenyl}thio-estra-1,3,5(10)-triene-3,17-diol sodium salt] was tested, and the “Alkaline phosphatase activity, percent of response related to 1 nM 17β-estradiol” value (from here on “Alkaline phosphatase activity, percent”) ([1]; 0.01 uM compound, agonist mode) was 11%, the “Alkaline phosphatase activity, percent” value ([1]; 0.1 uM compound, agonist mode) was 72% and the “Alkaline phosphatase activity, percent” value [1, 4] was 101%. For the same compound, the “Alkaline phosphatase activity, percent” value ([1]; 1 uM compound, agonist mode) was 95%, the Uterine wet weight ([2]; 1 ug Cpd) was 48.0 mg and the Uterine wet weight ([2]; 100 ug Cpd) was 55.8 mg. For the same compound, the IC50 ([3]; read-out: Receptor IC50) was 400 nM.

With `CCCCN(C)C(=O)CCCCCCCCCCS[C@@H]1Cc2cc(O)ccc2[C@H]2CC[C@]3(C)[C@@H](O)CC[C@H]3[C@@H]21` [Example 18, (7α,17β) 7-[10-(N-Butyl-N-methyl-carbamoyl)-decyl]thio-estra-1,3,5(10)-triene-3,17-diol] the “Alkaline phosphatase activity, percent” value ([1]; 0.01 uM compound, agonist mode) was 0%, the “Alkaline phosphatase activity, percent” value ([1]; 0.1 uM compound, agonist mode) was 0% and the “Alkaline phosphatase activity, percent” value [1, 4] was 1%. The “Alkaline phosphatase activity, percent” value ([1]; 1 uM compound, agonist mode) was 0%, the “Behaviour in the uterine cell line (agonist/antagonist)” value ([1]; in words, from Table 2) was “pure estrogen antagonists” and the Uterine wet weight ([2]; 1 ug Cpd) was 31.8 mg. For the same compound, the Uterine wet weight ([2]; 1 ug E2 + 100 ug Cpd) was 46.0 mg, the Uterine wet weight ([2]; 100 ug Cpd) was 41.6 mg and the “Effect on rat uterus (agonist/antagonist)” value ([2]; in words, dosed alone or with 17β-estradiol) was “very efficacious antagonist”. For the same compound, the IC50 [3] was 100 nM.

In the case of `C[C@]12CC[C@@H]3c4ccc(O)cc4C[C@@H](Sc4ccc(O)cc4)[C@H]3[C@@H]1CC[C@@H]2O` [Example 4, (7α,17β) 7-(4-Hydroxyphenyl)thio-estra-1,3,5(10)-triene-3,17-diol], the “Alkaline phosphatase activity, percent” value ([1]; 0.01 uM compound, agonist mode) is reported as 7%, the “Alkaline phosphatase activity, percent” value ([1]; 0.1 uM compound, agonist mode) is reported as 47% and the “Alkaline phosphatase activity, percent” value [1, 4] is reported as 6%. For the same compound, the “Alkaline phosphatase activity, percent” value ([1]; 1 uM compound, agonist mode) was 57%, the Uterine wet weight ([2]; 1 ug Cpd) was 37.9 mg and the Uterine wet weight ([2]; 100 ug Cpd) was 45.4 mg. The IC50 ([3]; read-out: Receptor IC50) was 300 nM.

With `CCCCN(C)C(=O)CCCCCCCCCCS[C@@H]1C(=O)c2cc(O)ccc2[C@H]2CC[C@]3(C)[C@@H](O)CC[C@H]3[C@H]12` [Example 16, (7α,17β) 7-[10-(N-Butyl-N-methyl-carbamoyl)-decyl]thio-3,17-dihydroxy-estra-1,3,5(10)-triene-6-one] the “Alkaline phosphatase activity, percent” value ([1]; 0.01 uM compound, agonist mode) was 7%, the “Alkaline phosphatase activity, percent” value ([1]; 0.1 uM compound, agonist mode) was 22% and the “Alkaline phosphatase activity, percent” value [1, 4] was 66%. For the same compound, the “Alkaline phosphatase activity, percent” value ([1]; 1 uM compound, agonist mode) was 42%, the Uterine wet weight ([2]; 1 ug Cpd) was 41.3 mg and the Uterine wet weight ([2]; 100 ug Cpd) was 72.5 mg. For the same compound, the IC50 [3] was 300 nM.
